Source: patent publication US7731971B2, “Enhanced CTL epitope-containing HIV-1 reverse transcriptase polypeptides” (The United States of America as represented by the …, priority 2003, dated 2010)

Columns and labels:
[1] = system: vaccinia virus expressing a reverse transcriptase protein of HIV (vCF21); parameters: species or system HHD-2 mice; conditions: mouse, in vivo
[2] = system: vaccinia virus expressing a β-galactosidase protein (vSC8); parameters: species or system HHD-2 mice; conditions: mouse, in vivo

With YLYQYMDDV the “protection against vCF21 infection” value [1] was “only partially protected” and the “protection against vaccinia strain (vSC8) that does not express RT” value [2] was “Neither population of mice displayed protection”.
